What was measured:
Gram negative bacteria = experiment: In vitro assessment of Gram negative activity (MIC/MBC panel); format: cell-based
Procedure: (§1) Minimum inhibitory concentrations (MIC), minimum bactericidal concentrations (MBC), rates of killing and the incidence of naturally occurring resistant mutants were determined for silver fusidate prepared according to Example 1. MICs were determined by the plate dilution method using IsoSensitest (IsoSensitest is a Trade Mark) media supplemented where necessary with 5% lysed horse blood. Two inocula were used, 10⁶ and 10⁴ cfu. MICs were read after overnight incubation in the appropriate atmosphere. The plates bearing the 10⁶ inocula were replicated using velvet pads for the determination of MBC which is defined as the lowest antibiotic concentration killing at least 99.9% of the original inoculum.
(§2) 20 strains of the following species were tested:
(§3) Gram negative: Escherichia coli, Enterobacter spp., Klebsiella pneumoniae, Acinetobacter spp., Pseudomonas aeruginosa, Providencia stuartii, Proteus mirabilis, indole-positive Proteae (10 each of Prov. rettgeri and Pr. vulgaris).

MRSA = experiment: MIC / MBC, plate dilution method (MBC by replica plating with velvet pads); format: cell-based, methicillin-resistant Staph. aureus (MRSA); conditions: inoculum of 10⁶ org/ml, 20 strains
Procedure: as §1, §2
(§4) Gram positive: methicillin-resistant Staph. aureus (MRSA), methicillin-sensitive Staph. aureus (MSSA), methicillin-resistant Staph. epidermidis (MRSE), Enterocci, Streptococcus pyogenes, Candida albicans, Clostridium spp.

Pseudomas sp. = experiment: as above; format: cell-based, Pseudomonas aeruginosa
Procedure: as §1, §2, §3

[1] = system: various strains of Staphylococcus; experiment: Incidence of naturally occurring resistant mutants; format: cell-based; conditions: absence of growth in the presence of 100 µg/ml
Procedure: as §1

[2] = system: one particular strain of Staphyloccus; experiment: Rates of killing; format: cell-based; conditions: non-growing state compared with growing state
Procedure: as §1
This is a very interesting observation because it is known that certain strains of Staphylococcus colonize, e.g., the nose, creating in the host a carrier state. Carrier state hosts are a constant source of potential infection both for themselves and those they come in contact with. This is a particularly troublesome source of infections in the hospital environment. It is recognized that the cheapest and most efficient way off removing this problem from a hospital is to remove or discharge the carrier. […]

[3] = system: Gram positive and Gram negative bacteria and Candida albicans; experiment: In vitro assessment of spectrum of activity (MIC/MBC panel); format: cell-based; conditions: compared to sodium fusidate and silver sulphadiazine
Procedure: as §1, §2, §4, §3

[4] = system: coagulase negative Staphylococci; experiment: MIC determination, zinc fusidate panel; format: cell-based; conditions: 2 strains
Procedure: (§5) MICs were determined for zinc fusidate prepared according to Example 3 using the following Gram positive and Gram negative panels:
(§6) 4 strains of Staphylococcus aureus (2 methicillin-resistant, 2 methicilllin-sensitive) and 2 strains each of coagulase-negative staphylococci, Staph. saprophyticus, Enterococci, Streptococcus pyogenes, Strept. agalactiae, Listeria monocytogenes, diphtheroids and Bacillus spp., 2 strains each of Escherichia coli, Klebsiella pneumoniae, Pseudomonas aeruginosa, Providencia stuartii, Proteus morganii, Salmonella typhimurium, Acinetobacter spp., Citrobacter freundii, Serratia marcescens and Enterobacter cloacae.

[5] = system: remaining Gram positive organisms; experiment: MIC determination, zinc fusidate panel; format: cell-based; conditions: remaining Gram positive organisms of the panel
Procedure: as §5, §6

Gram positive bacteria = experiment: MIC determination, zinc fusidate panel, overall assessment; format: cell-based
Procedure: as §5, §6

CC(=O)O[C@H]1C[C@@]2(C)[C@@H](C[C@@H](O)[C@H]3[C@@]4(C)CC[C@@H](O)[C@@H](C)[C@@H]4CC[C@@]32C)/C1=C(\CCC=C(C)C)C(=O)O [sodium fusidate]
Gram negative activity (Gram negative bacteria): total lack of Gram negative activity

silver fusidate
MIC range (MRSA): 0.13 to 64 µg/mL
MBC range (Pseudomas sp.): 32 to 64 µg/mL
MIC range (Pseudomas sp.): 32 to 64 µg/mL
incidence of silver fusidate resistant mutants [1]: too low to be measured
rate of killing [2]: killed more rapidly in a non-growing state
spectrum of activity [3]: broad spectrum of activity

silver salt of N¹-(pyrimidin-2-yl) sulphanilamide [silver sulphadiazine, reference compound]
MBC range (MRSA; lowest concentration killing at least 99.9% of the original inoculum): 128 to 256 µg/mL

zinc fusidate
MIC range [4]: 10 to 100 µg/mL
MIC range [5]: <1 to 10 µg/mL
activity against Gram positive bacteria (Gram positive bacteria): demonstrates activity

Reference: EP0408330A2, “Anti-infective agents, process for their preparation and their use in therapy” (priority 1989, dated 1991)
